Drawing on article PMC5520944 (Cell Death & Disease, 2017), this text covers IC50 for one compound.

Counter-ions that a name gives are not always drawn.

For one test, the system named is MEF. Description: cells. Set-up: species or system L929sAhFas or MEF; protection from TNF-induced cell death, percentage PI-positive nuclei by high-content imaging. As to conditions: Mus musculus, mTNF + BV6, inhibition of induced cell death. As to the method:
(c,d) HT-29 and Jurkat FADD−/− cells were pretreated for 1 h with DMSO, Nec-1 or Sorafenib (concentrations as indicated) and stimulated for 6 h with 30 ng/ml hTNF, 1 μM BV6 and 30 μM zVAD (HT-29) or stimulated for 10 h with 100 ng/ml hTNF (Jurkat FADD−/−). (a-d) Data were normalized to DMSO-treated control cells and represent the mean value±S.E.M. of three independent experiments. Toxic concentrations were removed from the analysis. L929sAhFas and MEF cells were stained with Hoechst and PI and percentage PI-positive nuclei was determined using high-content image analysis (BD pathway Bioimager). For HT-29 and Jurkat FADD−/− cells, cell death was determined by PI staining and flow cytometry. […] Cell death in AML cells was determined by PI staining and flow cytometry. […] Smac mimetic BV6[34] instead of TAK1i was used as a sensitizer for testing of mouse embryonic fibroblasts (MEF) and human cell lines. […] Since Sorafenib is used to treat AML,[27] we also included two AML cell lines to investigate whether it alters the sensitivity of these cells to necroptotic stimuli (BV6 in the presence of zVAD-fmk).[34]

The next test relates to Molm13. Description: cells. Set-up: species or system Jurkat FADD-/-, HT-29, MV4-11 or Molm13; protection from induced necroptosis, cell death by PI staining and flow cytometry. As to conditions: Homo sapiens, MOLM-13; BV6 + zVAD; inhibition of induced cell death. The method, then:
Figure 2 Sorafenib inhibits TNF-induced RIPK1-dependent cell death in both murine and human cell lines and rescues AML cells from Smac mimetic-induced necroptosis. […] (c,d) HT-29 and Jurkat FADD−/− cells were pretreated for 1 h with DMSO, Nec-1 or Sorafenib (concentrations as indicated) and stimulated for 6 h with 30 ng/ml hTNF, 1 μM BV6 and 30 μM zVAD (HT-29) or stimulated for 10 h with 100 ng/ml hTNF (Jurkat FADD−/−). (a-d) Data were normalized to DMSO-treated control cells and represent the mean value±S.E.M. of three independent experiments. Toxic concentrations were removed from the analysis. L929sAhFas and MEF cells were stained with Hoechst and PI and percentage PI-positive nuclei was determined using high-content image analysis (BD pathway Bioimager). For HT-29 and Jurkat FADD−/− cells, cell death was determined by PI staining and flow cytometry. […] Cell death in AML cells was determined by PI staining and flow cytometry. Mean and S.D. of three independent experiments performed in triplicate are shown Supplementary materials and methods Immunoblotting. After treatments, cells were washed twice with PBS and lysed with Laemmli buffer (2x) directly or with NP-40 lysis buffer (150 mM NaCl, 1% NP-40, 10% glycerol, 10 mM Tris-HCl pH 8) supplemented with EDTA-free protease inhibitor cocktail tablets (Roche Diagnostics, Basel, Switzerland, #11873580001) and phosphatase inhibitor cocktail tablets (Roche Diagnostics, #04906837001). After lysis with NP-40 lysis buffer, lysates were kept 10 minutes on ice and centrifugated in a microcentrifuge (10 min, 13.000 rpm, 4°C). Supernatant was used for SDS-PAGE and immunoblotting. FACS analysis. FACS analysis was used to measure dying HT-29, Jurkat FADD-/- and AML cells. Treated HT-29 cells were harvested, washed with PBS and incubated with Annexin V binding buffer (BD Biosciences, 556454) containing 7-AAD and Annexin V-FITC for 15 min according to the manufacturer’s protocol. FACSCalibur^TM Flow Cytometer (BD Biosciences) and CellQuest Pro software were used to perform experiments and analyze data respectively.

In the case of `CNC(=O)c1cc(Oc2ccc(NC(=O)Nc3ccc(Cl)c(C(F)(F)F)c3)cc2)ccn1` [Sorafenib tosylate], the IC50 (usually the concentration needed to halve the response being measured) with MEF was 2200 ± 470 nM; with Molm13 it was not above 30 nM.
